Measurements reported in patent publication US10035790B2, “RORγ modulators” (BRISTOL-MYERS SQUIBB COMPANY, priority 2012, dated 2018).

These compounds were tested against T1, ligand binding domain of human RORγ (A262-S507) (Homo sapiens, UniProt P51449) (assay: General RORγ SPA binding assay (competition with [3H]25-hydroxycholesterol)). Conditions: RORγ SPA binding assay, inhibition of [3H]25-hydroxycholesterol binding; read-out: IC50.
T1 construct: made in house; host or cells: E. coli
T1 sequence (P51449 262-507): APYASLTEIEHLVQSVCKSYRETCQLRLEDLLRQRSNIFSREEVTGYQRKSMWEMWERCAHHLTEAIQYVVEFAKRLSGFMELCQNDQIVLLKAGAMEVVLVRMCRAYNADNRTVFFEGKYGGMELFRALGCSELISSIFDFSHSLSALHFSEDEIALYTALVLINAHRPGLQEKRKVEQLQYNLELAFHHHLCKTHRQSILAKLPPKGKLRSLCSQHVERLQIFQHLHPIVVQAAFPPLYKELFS
Procedure, shortened: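 Scintillation counts from copper His-tag SPA beads (4 mg/mL, 30 min) gave percent inhibition of radioligand binding, from which IC50 values are derived. The E. coli-expressed His-tagged domain (50 nM) is first exposed to compound for 15 min at room temperature in PBS containing 0.5% fatty acid free BSA.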
Compound Nc1ncc(C(N)COc2cccc(C(F)(F)F)n2)c(C2CCN(C(=O)Nc3c(F)cccc3F)CC2)n1 (centres unmarked) [Compound N24, 4-[2-Amino-5-(1-amino-2-{[6-(trifluoromethyl)pyridin-2-yl]oxy}ethyl)pyrimidin-4-yl]-N-(2,6-difluorophenyl)piperidine-1-carboxamide] has an IC50 of 0.0093 µM.
For Cc1ncc(/C(COc2cccc(C(F)(F)F)n2)=N/O)c(C2CCN(C(=O)Nc3c(F)cccc3F)CC2)n1 [Compound N26, N-(2,6-difluorophenyl)-4-{5-[(1Z)—N-hydroxy-2-{[6-(trifluoromethyl)pyridin-2-yl]oxy}ethanimidoyl]-2-methylpyrimidin-4-yl}piperidine-1-carboxamide], the IC50 was 0.141 µM.
CNC(COc1cccc(C(F)(F)F)n1)c1cnc(N)nc1C1CCN(C(=O)Nc2c(F)cccc2F)CC1 (centres unmarked) [Compound N27, 4-{2-Amino-5-[1-(methylamino)-2-{[6-(trifluoromethyl)pyridin-2-yl]oxy}ethyl]pyrimidin-4-yl}-N-(2,6-difluorophenyl)piperidine-1-carboxamide] gave an IC50 of 0.0182 µM.
Work on CC(=O)N1CCC(NC(COc2cccc(C(F)(F)F)n2)c2cnc(C)nc2C2CCN(C(=O)Nc3c(F)cccc3F)CC2)CC1 (centres unmarked) [Compound N28, 4-[5-(1-[(1-Acetylpiperidin-4-yl)amino]-2-{[6-(trifluoromethyl)pyridin-2-yl]oxy}ethyl)-2-methylpyrimidin-4-yl]-N-(2,6-difluorophenyl)piperidine-1-carboxamide] yielded an IC50 of 0.071 µM.
Nc1ncc(C(N)COc2cccc(C(F)(F)F)n2)c(C2CCN(C(=O)Oc3ccccc3F)CC2)n1 (centres unmarked) [Compound N29, 2-Fluorophenyl 4-[2-amino-5-(1-amino-2-{[6-(trifluoromethyl)pyridin-2-yl]oxy}ethyl)pyrimidin-4-yl]piperidine-1-carboxylate] was tested, and the IC50 was 10 µM.
With Cc1ncc(C(O)(CCO)COc2cccc(C(F)(F)F)n2)c(C2CCN(C(=O)Nc3c(F)cccc3F)CC2)n1 (centres unmarked) [Compound N30, N-(2,6-Difluorophenyl)-4-{5-[1,3-dihydroxy-1-({[6-(trifluoromethyl)pyridin-2-yl]oxy}methyl)propyl]-2-methylpyrimidin-4-yl}piperidine-1-carboxamide] the IC50 was 0.0109 µM.
Cc1ncc(C(O)(CCN)COc2cccc(C(F)(F)F)n2)c(C2CCN(C(=O)Nc3c(F)cccc3F)CC2)n1 (centres unmarked) [Compound N31, 4-(5-(4-Amino-2-hydroxy-1-(6-(trifluoromethyl)pyridin-2-yloxy)butan-2-yl)-2-methylpyrimidin-4-yl)-N-(2,6-difluorophenyl)piperidine-1-carboxamide] gave an IC50 of 0.62 µM.
Cc1ncc(C(O)(CO)COc2cccc(C(F)(F)F)n2)c(C2CCN(C(=O)Nc3c(F)cccc3F)CC2)n1 (centres unmarked) [Compound N32, N-(2,6-Difluorophenyl)-4-{5-[1,2-dihydroxy-1-({[6-(trifluoromethyl)pyridin-2-yl]oxy}methyl)ethyl]-2-methylpyrimidin-4-yl}piperidine-1-carboxamide] gave an IC50 of 0.0057 µM.
Cc1ncc(C(O)(CN=[N+]=[N-])COc2cccc(C(F)(F)F)n2)c(C2CCN(C(=O)Nc3c(F)cccc3F)CC2)n1 (centres unmarked) [Compound N33, 4-{5-[2-Azido-1-hydroxy-1-({[6-(trifluoromethyl)pyridin-2-yl]oxy}methyl)ethyl]-2-methylpyrimidin-4-yl}-N-(2,6-difluorophenyl)piperidine-1-carboxamide] showed an IC50 of 0.0029 µM.
Cc1ncc(C(O)(CN)COc2cccc(C(F)(F)F)n2)c(C2CCN(C(=O)Nc3c(F)cccc3F)CC2)n1 (centres unmarked) [Compound N34, 4-{5-[2-Amino-1-hydroxy-1-({[6-(trifluoromethyl)pyridin-2-yl]oxy}methyl)ethyl]-2-methylpyrimidin-4-yl}-N-(2,6-difluorophenyl)piperidine-1-carboxamide] gave an IC50 of 0.0128 µM.
With Cc1ncc(C(O)(CN)COc2cccc(C(F)(F)F)n2)c(C2CCN(C(=O)Cc3c(F)cccc3F)CC2)n1 (centres unmarked) [Compound N35, 1-Amino-2-(4-{1-[(2,6-difluorophenyl)acetyl]piperidin-4-yl}-2-methylpyrimidin-5-yl)-3-{[6-(trifluoromethyl)pyridin-2-yl]oxy}propan-2-ol] the IC50 was 0.0055 µM.
